Experiment: Human HepG2 cell viability assay in 384 well format
Assay type: toxicity, cell-based
Set-up: dose 125 nL, time 70.5 hour; concentration not given beside the values
Conditions: HepG2 cells, read-out: Inhibition

Row | Compound | cytotoxicity at 70.5 h [%]
1 | Cc1c[nH]nc1C1CCN(C(=O)CC2CCCC2)C1 (stereo unspecified) | -6.41
2 | COc1ccccc1C1Cn2c(C)cnc2CN1Cc1ccc(C)nc1 (stereo unspecified) | 22.5
3 | CC(NC1(CNS(C)(=O)=O)CCCC1)c1ccccc1 (stereo unspecified) | -16.9
4 | Cc1ccc(CNCCC(O)(c2nccn2C)C(F)(F)F)o1 (stereo unspecified) | -6.24
5 | COCC1CCN(CCOc2ccc(C#N)cc2OC)CC1 | 20.7
6 | CCC(NC(=O)c1ccc(COC)o1)c1nc(C(F)(F)F)cs1 (stereo unspecified) | 4.55
7 | CNC(=O)CNC(=O)Nc1ccc(F)c(Br)c1 | -2.46
8 | O=C(NCCO)Nc1ccc(Br)c(F)c1 | -0.649
9 | CC(C)N(C(=O)c1ccnc(OCC(F)(F)F)c1)c1cccnc1 | -12.7
10 | Clc1ccc(N2CCN(CCCN3CCCCC3)CC2)nc1 | 7.35
11 | N#Cc1ccc(CS(=O)(=O)NC(=O)c2ccc3c(c2)COC3)cc1 | 14.9
12 | CC(C)CC1(C(=O)NCc2nncn2C2CC2)CCC1 | 1.12
13 | CC(C)CC1(C(=O)NCCc2nncn2C2CC2)CCC1 | -3.78
14 | Cc1n[nH]c(-c2ccc(NC(=O)C(C)(C)N3CCN(C)CC3)cc2)n1 | -7.96
15 | CC(NCc1cccn1C)c1noc(-c2ccc(Cl)cc2)n1 (stereo unspecified) | -9.95
16 | CCn1cc(CNC(C)c2noc(-c3ccc(Cl)cc3)n2)cn1 (stereo unspecified) | -3.37
17 | O=C(NC1CC1)N(CCc1ccccc1)C1CCOC1 (stereo unspecified) | 12.1
18 | Cc1nnc(NCc2ccc(F)cc2)o1 | -2.93
19 | CCc1ccc(C(=O)N(c2cccnc2)C(C)C)cc1S(C)(=O)=O | -8
20 | CC(C)(C)c1nnc(NCc2ccc(F)cc2)o1 | -2.71
21 | COc1ccc(CNC(c2cccc(F)c2)c2cnn(C)c2)cc1 (stereo unspecified) | -3.12
22 | CN(C)CCNc1ncccc1CNC(=O)Nc1cc(F)cc(F)c1 | -12
23 | CNC(=O)c1cccc(CCNC2CCSc3ccccc32)c1 (stereo unspecified) | -3.79
24 | CNC(=O)c1cccc(CNC2CCSc3c(Cl)cccc32)c1 (stereo unspecified) | 35.4
25 | COc1ccccc1CN1CCCC(n2cccn2)C1 (stereo unspecified) | -1.34

Row | Compound | cytotoxicity at 70.5 h [%]
26 | O=C(CN1CCCCCC1=O)NC1CCc2nccn2C1 (stereo unspecified) | -8.44
27 | CC(C(=O)N(C)Cc1ccco1)n1cncn1 (stereo unspecified) | 1.02
28 | CC(C)(C)OC(=O)N1CCCCC(NC(=O)CCc2cccnc2)C1 (stereo unspecified) | -3.57
29 | Cc1nnc(CSc2ccccn2)o1 | -13.6
30 | N#Cc1cn(C2CC2)c(=O)n(Cc2noc(-c3ccsc3)n2)c1=O | -14
31 | O=C(CN1CCS(=O)(=O)CC1)Nc1ccc(N2CCCC2)nc1 | -5.27
32 | CS(=O)(=O)NC1CCN(C(=O)NCC2CCCO2)CC1 (stereo unspecified) | -10.3
33 | CC(C)(CNc1ccccc1S(=O)(=O)C(F)F)N1CCOCC1 | -0.0351
34 | CC(OCC1CC1)C(=O)N1CCCN(c2nc3ccccc3[nH]2)CC1 (stereo unspecified) | -3.86
35 | Cc1ccc(F)cc1S(=O)(=O)NCc1[nH]ncc1Br | -0.985
36 | O=C(NC1=NCCS1)C1CSCN1C(=O)C1CCCC1 (stereo unspecified) | -12.4
37 | N#Cc1cn(C2CC2)c(=O)n(Cc2ncc(-c3cccs3)o2)c1=O | -13
38 | CCOc1ccc(N(C)Cc2nnc(C)o2)cc1 | 19.3
39 | CN(C)C(=O)CCNC(=O)Nc1sc2ccccc2c1Cl | -7.68
40 | CS(=O)(=O)CCNC(=O)Nc1sc2ccccc2c1Cl | -11.7
41 | O=C(CN1C(=O)CCCc2sccc21)NC1CCc2nccn2C1 (stereo unspecified) | -1.68
42 | CS(=O)(=O)CCCNC(=O)Nc1sc2ccccc2c1Cl | -4.03
43 | Brc1cnc(NCCCOCC2CCOCC2)nc1 | -5.42
44 | c1cnc(NCCCOC2CCOCC2)nc1 | 4.17
45 | NC(=O)COCCNC(=O)Nc1sc2ccccc2c1Cl | -9.32
46 | CS(=O)(=O)NCc1ccc(C(=O)NCc2ccc3c(c2)CCC3)o1 | -7.15
47 | CCCC(O)CNc1cncc(Br)c1 (stereo unspecified) | -5.08
48 | Clc1cc(Cl)cc(CN2CCC(NCc3ncc[nH]3)CC2)c1 | -4.36
49 | COCCN1CC(C(=O)NCc2ccc(C)s2)CC1=O (stereo unspecified) | -1.18
50 | Cc1noc(CCCC(=O)N(CC2CCOC2)C2CC2)n1 (stereo unspecified) | -11

Row | Compound | cytotoxicity at 70.5 h [%]
51 | CCN(CC1CCOC1)C(=O)CCc1nc(C(C)(C)C)no1 (stereo unspecified) | -10.1
52 | COC(=O)c1ncccc1N1CCN(C(=O)CN2CCOCC2)CC1 | 29.5
53 | CN(CCSc1nncn1CC(F)(F)F)c1ccccc1 | 1.22
54 | CN1CCN(C2CCN(Cc3cn4ccccc4n3)CC2)C1=O | 19.5
55 | Cc1cccn2cc(CN3CCC(N4CCN(C)C4=O)CC3)nc12 | -6.74
56 | COC(=O)c1ncccc1N1CCC(C(O)c2ccccc2)CC1 (stereo unspecified) | -6.81
57 | O=C(NCc1nnc2n1CCC2)c1cccc(Br)c1 | -9.88
58 | Cc1cc(C(=O)NC(C)Cc2cccc(Cl)c2)n(C)n1 (stereo unspecified) | -2.61
59 | CC(NC(=O)Nc1ccc(-c2csnn2)cc1)C(=O)NC(C)(C)C (stereo unspecified) | -9.46
60 | N#Cc1cc(S(N)(=O)=O)ccc1N1CCN(c2ccccc2)CC1 | 1.86
61 | Oc1cccc(CNCc2ccc(-n3cncn3)nc2)c1 | 0.561
62 | CN1CCN(c2ccc(F)cc2NC(=O)NCCn2ccnc2)CC1 | -0.0867
63 | N#Cc1ccc(CNCCc2cc(F)cc3c2OCOC3)cc1 | 7.73
64 | CS(=O)(=O)NC(=O)c1ccn(-c2cccc(Br)c2)n1 | -3.84
65 | CC(C)(C)NC(=O)CNc1ccc(Br)cn1 | 0.762
66 | CCN1CCN(c2ccccc2NC(=O)NCc2ccon2)CC1 | -0.39
67 | CCCn1ccnc1-c1cccc(NC(=O)[C@H]2CCC(=O)N2)c1 | 1.18
68 | Fc1cc(CCNc2ccc3nccn3n2)c2c(c1)COCO2 | 5.74
69 | Cc1nc(CNC(=O)Nc2cc(F)ccc2N2CCN(C)CC2)no1 | -2.28
70 | CC1CC(NS(=O)(=O)c2ccc(C(F)(F)F)nc2)C1 (stereo unspecified) | 26.5
71 | CCCn1ccnc1-c1cccc(NC(=O)C2CCCOC2)c1 (stereo unspecified) | -5.58
72 | CN(C)CCN(Cc1cccc(F)c1)C(=O)c1ccn(C)c(=O)c1 | -2.08
73 | CC(C)(C)CN(CCC#N)C(=O)c1cccc(CC#N)c1 | -3.08
74 | OCc1cccc(OCc2ccon2)c1 | -3.01
75 | CN(CCSc1nncn1C(C)(C)C)c1ccccc1 | 31

Row | Compound | cytotoxicity at 70.5 h [%]
76 | N#CCCN(Cc1ccccn1)C(=O)c1cccc(CN2CCCC2)c1 | -1.86
77 | CC(C#N)(NC(=O)c1ccc(C#N)cc1)C1CC1 (stereo unspecified) | -0.776
78 | CC(NC(=O)CNc1cc2c(cc1Cl)NC(=O)CO2)c1ccco1 (stereo unspecified) | 14.6
79 | CCOc1cc(CNC(=O)CNC(=O)CC2CCCCC2)ccn1 | -6.29
80 | COc1ccc2cc(C(=O)NCCc3nc(C)no3)[nH]c2c1 | 5.04
81 | CCc1ccc(NC(C(N)=O)c2ccc(F)cc2)cc1 (stereo unspecified) | -5.1
82 | COc1ccc(-c2nc(CCNC(=O)NCC3CCOC3)co2)cc1 (stereo unspecified) | -11.8
83 | CC(=O)NCCCNC(=O)N(C)C(C)Cc1ccc(Cl)cc1 (stereo unspecified) | -8.06
84 | CC(O)(CNC(=O)NCCc1ccc2c(c1)CCO2)c1ccsc1 (stereo unspecified) | 1.66
85 | NC(=O)C1CCCN1C(=O)c1cc(C2CC2)nc2ccc(F)cc12 (stereo unspecified) | 18.9
86 | COc1ccc(Cl)cc1CCNC(=O)NCc1noc(C)n1 | -3.63
87 | COc1ccccc1OCC(=O)NS(=O)(=O)c1cccnc1 | -8.19
88 | Cc1noc(CCCC(=O)NCCc2cc3ccccc3[nH]2)n1 | -6.92
89 | COc1ccc(Cl)cc1CCNC(=O)NCc1cnn(C)c1C | -4.39
90 | N#CC(NC(=O)CC(F)(F)F)c1ccsc1 (stereo unspecified) | -7.23
91 | CC(NC(=O)CCn1cccn1)c1ccc(-n2ccnn2)cc1 (stereo unspecified) | 15.4
92 | CCN(CC)C1CCN(C(=O)NCc2cccc(NC(C)=O)c2)C1 (stereo unspecified) | -6.18
93 | COc1cc(C)ccc1OCCC(=O)N1CCC(N2CC=CC2)C1 (stereo unspecified) | -2.75
94 | CC(C)Oc1ccc(CN)c(C(F)(F)F)c1 | -7.67
95 | CCCS(=O)(=O)N1CCN(CCCO)CC1 | 0.836
96 | Cc1cnn(C2CN(CCOc3ccc(C#N)cc3)C2)c1 | -5.99
97 | Cc1cn2nc(N(C)C3CCCN(c4cccnn4)C3)sc2n1 (stereo unspecified) | -11.5
98 | CC(NC(=O)N1CCCC1)c1ccc(S(N)(=O)=O)cc1 (stereo unspecified) | -13
99 | CN(C)c1ccc(C(=O)Nc2ccn(CC(N)=O)n2)cn1 | -8.63
100 | CN(C)c1ccc(C(=O)Nc2ccn(CCc3ccncc3)n2)cc1 | 15

Row | Compound | cytotoxicity at 70.5 h [%]
101 | Cc1nc2n(n1)CC(NCc1ccc(Cl)c3cccnc13)CC2 (stereo unspecified) | -8.23
102 | Cc1cc(C[S+]([O-])Cc2ccccc2F)no1 (stereo unspecified) | 16.6
103 | Cc1ccc(N2CCCC(N(C)c3nn4cc(C)nc4s3)C2)nn1 (stereo unspecified) | -3.89
104 | COC(=O)NCC(=O)NC1(C)CCc2ccccc2C1 (stereo unspecified) | -8.98
105 | O=C1CN(c2ccc(C(=O)N3CCc4ccccc43)cn2)CCN1 | -6.79
106 | CN(C)c1ccc(C(=O)Nc2ccn(CCc3ccncc3)n2)cn1 | 0.589
107 | CC(C)Cn1ncc(C(=O)O)c1C1CC1 | -5.02
108 | CC(CC(=O)c1ccco1)NC(=O)c1ccon1 (stereo unspecified) | -8.03
109 | CCOc1ccc(Cl)cc1CCNC(=O)Cn1ccccc1=O | -3.35
110 | Cc1cccn2cc(CNS(=O)(=O)N3CCOCC3)nc12 | -5.24
111 | CC(NC(=O)N1CCC1)c1ccc(S(C)(=O)=O)cc1 (stereo unspecified) | -5.1
112 | COC(=O)c1ccc(NC(=O)CCc2ccco2)cc1 | -8.07
113 | Cc1nsc(N2CCN(CC(=O)N(C3CC3)C(C)C3CC3)CC2)n1 (stereo unspecified) | 13.6
114 | CCn1nc(C)cc1C(=O)OCC1CC(=O)N(Cc2ccccc2)C1 (stereo unspecified) | 0.617
115 | Cc1cnn(C2CN(CCOc3ccccc3C#N)C2)c1 | -4.34
116 | CCOc1cc(Cl)ccc1CNC(=O)c1ccc(=O)n(C)c1 | 11.4
117 | CCCS(=O)(=O)N1CCCN(CCCOC)CC1 | 8.01
118 | CC(C)Cn1ncc(C(=O)NS(=O)(=O)c2ccccc2)c1C1CC1 | -8.45
119 | O=C(CNC(=O)c1ccccc1Cl)Nc1nccs1 | 1.89
120 | CN(C)Cc1cc(C2CCCCN2S(=O)(=O)c2cccc(Cl)c2)nn1C (stereo unspecified) | -3.27
121 | c1cc(CNCc2ccc(-n3cncn3)nc2)cc(OC2CCCC2)c1 | -6.11
